4 compounds from ChEMBL document CHEMBL1129767, “Synthesis and properties of 25 and 35 linked -oligoriboadenylates” (Bioorg Med Chem Lett, 1996) can be followed below.

What all share (assay type): ADME
Series [1] is described as follows: Biological half life period of compound was measured against RNaseT2. The conditions noted are these: RNase T2.
Series [2] can be described thus: Biological half life period of compound was measured against nuclease P1.
A short description of series [3]: Biological half life period of compound was measured against snake venom phosphodiesterase (SVPDE). The conditions noted are these: serpentes.
Series [4] is described as follows: Biological half life period of compound was measured against RNaseT2; N C: Not cleaved.
A short description of series [5]: Biological half life period of compound was measured against nuclease P1;NC: Not cleaved.
A short description of series [6]: Biological half life period of compound was measured against RNaseT2; NC: Not cleaved.

In the case of `Nc1ncnc2c1ncn2C1O[C@H](COP(=O)(O)O[C@H]2[C@@H](O)[C@H](n3cnc4c(N)ncnc43)O[C@@H]2CO)[C@@H](O)[C@H]1O` (some centres not stated), the values for the half-life in series [1], in series [2] and in series [3] were 12.6 min, 7.8 min and 3.6 min, respectively.

Turning to `Nc1ncnc2c1ncn2C1O[C@H](COP(=O)(O)O[C@@H]2[C@H](O)[C@@H](CO)O[C@H]2n2cnc3c(N)ncnc32)[C@@H](O)[C@H]1O` (some centres not stated), the T1/2 entry in series [4] and in series [5] was “Not cleaved” in each case. In series [3], this compound had a half-life of 3.6 min.

Take `Nc1ncnc2c1ncn2C1OC(COP(=O)(O)O[C@@H]2C(CO)O[C@H](n3cnc4c(N)ncnc43)[C@@H]2O)[C@@H](O)[C@H]1O` (single isomer, unassigned): in series [4], the T1/2 entry is “Not cleaved”. Moreover, the values for the half-life in series [2] and in series [3] were 120 min and 31.8 min, respectively.

For `Nc1ncnc2c1ncn2C1OC(COP(=O)(O)O[C@@H]2[C@H](O)[C@@H](CO)O[C@@H]2n2cnc3c(N)ncnc32)[C@@H](O)[C@H]1O` (single isomer, unassigned), the T1/2 entry in series [6] and in series [5] was “Not cleaved” each time. In series [3], this compound had a half-life of 18 min.
